Entries after “also recorded” stand apart in the source; their conditions may differ. Where two headings read alike, the source gives them in different places.
Assays:
[1] = parameters: method as in earlier work; details: Temp 25℃, pH 7.4; cited from earlier work
[2] = Pharmacokinetics after single-dose intragastric administration in rats; type: in vivo, Sprague Dawley rats; details: for bioavailability / MRT / AUC / AUC(0-inf) / CL/F / Tmax / Cmax / half-life / Vd/F: rat, plasma; for bioavailability: 3.25 mg/kg intragastric vs intravenous, from AUCs, read-out: absolute oral bioavailability; for AUC: read-out: AUC0-tn; for Vd/F: read-out: Vss/F
Experimental: Blood samples were collected from the fundus venous plexus at various times within 8 h after administration in order to analyze the concentration of HY-071085 in plasma.
The profiles of the mean plasma concentration of HY-071085 versus time after a single dose in rats are presented in Figure 2 and Figure 3, and the PK parameters are listed in Table 1. […] At the three doses, the AUCtn ratios of the female rats and male rats were 3.5, 3.9 and 2.4, respectively. The AUCtn ratio among male rats was 1:5.16:41.06, and among female rats was 1:5.71:28.20.
(§1) In vivo PK profiling in the rats: Sprague Dawley rats (approximately 177–221 g in weight) were purchased from Shanghai Xipur-Bikai Experimental Animal Co., Ltd. (Shanghai, China). Before the experiment, several rats were randomly divided into several groups, half males and half females in each group, fasting but free to drink water for 12 h. The dosage of the rats was dependent on the drug pharmacology: the HY-071085 active pharmaceutical ingredients were administered with a dosage volume of 0.25 mL/100 g body weight. The whole-blood samples were centrifuged at 8000 rpm for 5 min, and the plasma samples were separated and stored at –80 °C until the analysis.
(§2) According to the obtained plasma concentration time data, the pharmacokinetic parameters were calculated using Phoenix WinNonlin 8.1 software. The pharmacokinetic parameters—i.e., the area under the curve (AUC), mean residence time (MRT), clearance rate (Cl/F) and steady-state apparent distribution volume (Vss/F)—were calculated by the method of moments, which was estimated according to the following formulae: AUCtn=∑Ci+Ci−1ti−ti−1/2 AUC∞=AUCtn+Cm/λ AUMCtn=∑tiCi+ti−1Ci−1ti−ti−1/2 AUMC∞=AUMCtn+Ctntn/λ+1/λ^2 MRT=AUMC∞/AUC∞ Cl/F=Dose/AUC Vss/F=Cl∗MRT where Ctn is the plasma concentration of tn at the last point after administration, and the elimination rate constant was obtained by ln(concentration) time linear regression.
(§3) Due to the drug having significant individual differences in rats, it could not be uniformly fitted with a PK atrioventricular model; as such, the pharmacokinetic parameters analyzed in this study were calculated using a non-atrioventricular model. The pharmacokinetic parameters are defined as follows: Cmax is the maximum blood concentration after administration and absorption, Tmax is the time required to reach Cmax, t1/2 is the time required to eliminate half of the plasma drug concentration after the drug distribution in the body reaches equilibrium, Cl/F is the apparent clearance rate, AUC0-tn is the area under the blood concentration time curve within the dosing interval, AUC0-∞ is the area under the plasma concentration time curve from 0 to infinity, MRT is the average time that all drug molecules stay in the body, and Vss/F is the steady-state apparent distribution volume, which is the product of the clearance rate and average residence time.

[3] = Tissue distribution in rats; type: in vivo; details: S-IG 13 mg/kg
Experimental: The male and female rats were euthanized by femoral artery bleeding under anesthesia after the single-dose intragastric administration of HY-071085 (13 mg/kg) for 10 min, 45 min and 4 h, and the tissues were separated for the analysis of the concentration of HY-071085 in the homogenate.
Tissue distribution in rats: Rats were randomly allocated into three groups (10 rats/group) for the tissue distribution studies. These rats were sacrificed at 10 min, 45 min and 4 h after orally administering HY-071085. Fourteen organs—the heart, liver, spleen, lung, kidney, stomach, gut, muscle, fat, skin, brain, ovary (female), womb (female) and testis (male)—were removed, washed in normal saline, and dried with filter papers immediately. The organs were accurately weighed and individually homogenized with an appropriate amount of deionized water. The tissue homogenate was stored at –80 °C until analysis.

[4] = Pharmacokinetics after repeated-dose intragastric administration in rats; type: in vivo, Sprague Dawley rats; details: for CL/F at 14 days / MRT at 14 days / CL/F at 28 days / MRT at 28 days / Tmax at 14 days / Cmax at 14 days / half-life at 14 days / Vd/F at 14 days / Cmax at 28 days / Tmax at 28 days / half-life at 28 days / Vd/F at 28 days / AUC(0-inf) / AUC: rat, plasma, po, R-IG 6.5 mg/kg; for Vd/F at 14 days / Vd/F at 28 days: read-out: Vss/F; for decrease of plasma exposure level compared with single administration / AUC(0-inf) / AUC: 6.5 mg/kg; for decrease of plasma exposure level compared with single administration: after 28 days of continuous administration; for plasma drug exposure level as % of the single dose: 28th day of intragastric administration; for AUC: read-out: AUC0-tn
Experimental: Male and female rats were given HY-071085 (6.5 mg/kg) by gastric gavage twice a day for 28 days. […] After 28 days of continuous administration, the plasma exposure levels of the male and female rats decreased by 49% and 85%, respectively, compared with that after a single administration (Figure 6).
as §1, §2, §3

[5] = Sprague Dawley, po, female rats, S-IG 3.25 mg/kg
[6] = Sprague Dawley, po, female rats, S-IG 6.5 mg/kg
[7] = Sprague Dawley, po, female rats, S-IG 13 mg/kg
[8] = Sprague Dawley, po, male rats, S-IG 3.25 mg/kg
[9] = Sprague Dawley, po, male rats, S-IG 6.5 mg/kg
[10] = Sprague Dawley, po, male rats, S-IG 13 mg/kg
[11] = Sprague-Dawley, po, female rats, S-IG 3.25 mg/kg
[12] = Sprague-Dawley, po, female rats, S-IG 6.5 mg/kg
[13] = Sprague-Dawley, po, female rats, S-IG 13 mg/kg
[14] = Sprague-Dawley, po, male rats, S-IG 3.25 mg/kg
[15] = Sprague-Dawley, po, male rats, S-IG 6.5 mg/kg
[16] = Sprague-Dawley, po, male rats, S-IG 13 mg/kg
[17] = Sprague Dawley, female rats, 14 days
[18] = Sprague Dawley, female rats, 28 days
[19] = Sprague Dawley, male rats, 14 days
[20] = Sprague Dawley, male rats, 28 days
[21] = Sprague-Dawley, female rats, 14 days
[22] = Sprague-Dawley, female rats, 28 days
[23] = Sprague-Dawley, male rats, 14 days
[24] = Sprague-Dawley, male rats, 28 days
[25] = female, Sprague Dawley, female rats, 14 days
[26] = female, Sprague Dawley, female rats, 28 days
[27] = male, Sprague Dawley, male rats, 14 days
[28] = male, Sprague Dawley, male rats, 28 days

CC1(C)OC2CC(=O)OCC23C1C/C(=N\OCCN1CCOCC1)C1(C)C3CC[C@@]2(C)[C@H](c3ccoc3)OC(=O)C3OC312 (stereo partly drawn) [HY-071085, (12S,12aS,E)-12-(furan-3-yl)-6,6,8a,12a-tetramethyl-8-((2-morpholinoethoxy)imino)dodecahydro-1H,3H-oxireno [2,3-d]pyrano [4’,3’:3,3a]isobenzofuro [5,4-f]isochromene-3,10(9aH)-dione]
LogD [1]: 2.45
AUCtn ratio of female rats and male rats ([2]; S-IG 3.25 mg/kg): 3.5
AUCtn ratio of female rats and male rats ([2]; S-IG 6.5 mg/kg): 3.9
AUCtn ratio of female rats and male rats ([2]; S-IG 13 mg/kg): 2.4
bioavailability ([2]; Sprague Dawley, oral, male rats): 2.83%
bioavailability ([2]; Sprague Dawley, po, female rats): 10.8%
MRT [2, 5]: 4.06 ± 0.82 h
AUC [2, 5]: 73.7 ± 25.3 ng·h/mL
AUC(0-inf) [2, 6]: 429 ± 204 ng·h/mL
CL/F [2, 6]: 302 mL/min/kg
MRT [2, 6]: 2.57 ± 0.64 h
AUC [2, 6]: 421 ± 205 ng·h/mL
MRT [2, 7]: 2.29 ± 0.92 h
Tmax [2, 7]: 0.95 ± 0.51 h
AUC [2, 7]: 2080 ± 407 ng·h/mL
bioavailability ([2]; Sprague Dawley, po, male rats): 2.8%
MRT [2, 8]: 3.48 ± 1.98 h
AUC [2, 8]: 20.8 ± 3.01 ng·h/mL
AUC(0-inf) [2, 9]: 125 ± 72.3 ng·h/mL
CL/F [2, 9]: 1180 mL/min/kg
MRT [2, 9]: 2.89 ± 1.87 h
AUC [2, 9]: 108 ± 54.2 ng·h/mL
MRT [2, 10]: 1.94 ± 0.39 h
AUC [2, 10]: 855 ± 290 ng·h/mL
Cmax [2, 11]: 20.4 ± 9.08 ng/mL
Tmax [2, 11]: 0.7 ± 0.73 h
half-life [2, 11]: 2.16 ± 1.13 h
Cmax [2, 12]: 145 ± 64.5 ng/mL
Tmax [2, 12]: 0.9 ± 0.68 h
half-life [2, 12]: 1.3 ± 0.36 h
Vd/F [2, 12]: 36.3 ± 23.2 L/kg
Cmax [2, 13]: 761 ± 322 ng/mL
half-life [2, 13]: 0.9 ± 0.42 h
Cmax [2, 14]: 11.3 ± 4.54 ng/mL
Tmax [2, 14]: 0.22 ± 0.04 h
half-life [2, 14]: 2.35 ± 1.27 h
Cmax [2, 15]: 107 ± 139 ng/mL
Tmax [2, 15]: 0.45 ± 0.59 h
half-life [2, 15]: 1.98 ± 1.04 h
Vd/F [2, 15]: 172 ± 70.3 L/kg
Cmax [2, 16]: 381 ± 152 ng/mL
Tmax [2, 16]: 0.85 ± 0.45 h
half-life [2, 16]: 1.21 ± 0.31 h
drug exposure of female rats relative to male rats ([2]; single-dose intragastric administration): about three times
concentration in the brain [3]: extremely low
tissue distribution ([3]; 10 min, 45 min and 4 h): mainly distributed in the gastric, intestine, liver, spleen, lung and kidney tissues; also recorded: mainly distributed in most of the tissues except the brain
CL/F at 14 days [4, 17]: 630 mL/min/kg
MRT at 14 days [4, 17]: 2.18 ± 0.27 h
CL/F at 28 days [4, 18]: 1730 mL/min/kg
MRT at 28 days [4, 18]: 2.54 ± 1.15 h
CL/F at 14 days [4, 19]: 836 mL/min/kg
Tmax at 14 days [4, 19]: 0.65 ± 0.38 h
CL/F at 28 days [4, 20]: 1860 mL/min/kg
MRT at 28 days [4, 20]: 1.74 ± 0.86 h
Cmax at 14 days [4, 21]: 125 ± 80.3 ng/mL
Tmax at 14 days [4, 21]: 0.68 ± 0.75 h
half-life at 14 days [4, 21]: 1.38 ± 0.24 h
Vd/F at 14 days [4, 21]: 80 ± 51 L/kg
Cmax at 28 days [4, 22]: 37.2 ± 19.9 ng/mL
Tmax at 28 days [4, 22]: 0.33 ± 0.16 h
half-life at 28 days [4, 22]: 1.75 ± 1.14 h
Vd/F at 28 days [4, 22]: 292 ± 251 L/kg
Cmax at 14 days [4, 23]: 63.2 ± 11.2 ng/mL
MRT at 14 days [4, 23]: 2.26 ± 0.33 h
half-life at 14 days [4, 23]: 1.52 ± 0.23 h
Vd/F at 14 days [4, 23]: 108 ± 13.8 L/kg
Cmax at 28 days [4, 24]: 38.9 ± 12.7 ng/mL
Tmax at 28 days [4, 24]: 0.6 ± 0.78 h
half-life at 28 days [4, 24]: 1.11 ± 0.41 h
Vd/F at 28 days [4, 24]: 169 ± 35.2 L/kg
decrease of plasma exposure level compared with single administration ([4]; female rats): 85%
plasma drug exposure level as % of the single dose ([4]; female rats): about 15%
AUC(0-inf) [4, 25]: 233 ± 159 ng·h/mL
AUC [4, 25]: 229 ± 159 ng·h/mL
AUC(0-inf) [4, 26]: 70.2 ± 28.8 ng·h/mL
AUC [4, 26]: 65.8 ± 28.9 ng·h/mL
decrease of plasma exposure level compared with single administration ([4]; male rats): 49%
plasma drug exposure level as % of the single dose ([4]; male rats): about 50%
AUC(0-inf) [4, 27]: 133 ± 22.3 ng·h/mL
AUC [4, 27]: 127 ± 22.4 ng·h/mL
AUC(0-inf) [4, 28]: 59.9 ± 10.5 ng·h/mL
AUC [4, 28]: 55 ± 8.82 ng·h/mL
